Drawing on PubChem BioAssay (NCI), this text covers GI50 and TGI for six molecules.

Test systems include A549 NSCLC; BT-549 breast; HCC-2998 colon; HL-60(TB) leukemia; M14 melanoma; MOLT-4 leukemia; OVCAR-4 ovarian; RXF 393 renal; SF-295 CNS; SK-MEL-2 melanoma.
Common to all, as to test: NCI anticancer screen, dose series, 48 h

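Compound exposure: 48 hours, 5 concentrations, 96-well plates. At the GI50, growth is halved. Definition used: TGI = concentration required for complete inhibition of growth.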 Some results are limits rather than exact numbers.

As to `CC1C(=O)c2cc3c(cc2CCN(C)Cc2c1ccc1c2OCO1)OCO3` (stereo not given), the GI50 with A549 NSCLC is more than 75 µg/mL; in the assay with BT-549 breast it was 59 µg/mL; in the assay on HCC-2998 colon it was 14.1 µg/mL; with HL-60(TB) leukemia it was 21.2 µg/mL; in the assay on M14 melanoma it was 43.6 µg/mL; in the assay on MOLT-4 leukemia, 21.8 µg/mL. Also, the GI50 with OVCAR-4 ovarian was 44.4 µg/mL; in the assay with RXF 393 renal, 13.1 µg/mL; in the assay on SF-295 CNS, more than 75 µg/mL; in the assay with SK-MEL-2 melanoma it was more than 75 µg/mL. In addition, the TGI with A549 NSCLC was more than 75 µg/mL; with BT-549 breast, more than 75 µg/mL; with HCC-2998 colon, 33.5 µg/mL; with HL-60(TB) leukemia it was more than 75 µg/mL; in the assay with M14 melanoma, more than 75 µg/mL; in the assay on MOLT-4 leukemia it was more than 75 µg/mL. Further, the TGI in the assay with OVCAR-4 ovarian is more than 75 µg/mL; in the assay on RXF 393 renal it was 68.3 µg/mL; in the assay on SF-295 CNS, more than 75 µg/mL; in the assay with SK-MEL-2 melanoma, more than 75 µg/mL.
Consider `CC1=C[C@@H](C)C[C@]2(C)CC[C@H](O2)[C@]23CC[C@](CO)(C[C@H](O2)[C@@H]2O[C@@](C)(CC2=O)[C@@H](O)[C@H]2CC[C@@]4(CCC[C@@H](O4)[C@H](C)C(=O)O[C@H]4C[C@H]([C@]5(O)OCC[C@H](C)[C@@H]5O)O[C@H]4C=C1)O2)O3`, for which the TGI with A549 NSCLC is more than 10 µM; in the assay with BT-549 breast it was 0.258 µM; in the assay with HCC-2998 colon, more than 10 µM; in the assay on HL-60(TB) leukemia it was 9.73 µM; in the assay with M14 melanoma, more than 10 µM; with MOLT-4 leukemia, more than 10 µM. Further, the TGI in the assay with OVCAR-4 ovarian was more than 10 µM; in the assay with RXF 393 renal, 0.0801 µM; in the assay with SF-295 CNS, more than 10 µM; in the assay on SK-MEL-2 melanoma it was more than 2.45 µM.
Regarding `COC(=O)C1CC23C4=C(CCC41)CCC1CN4CC(C)C(CC(OC(C)=O)C12COC(C)=O)C43O` (stereo not given), the TGI in the assay on A549 NSCLC, in the assay with BT-549 breast, in the assay with HCC-2998 colon, in the assay on HL-60(TB) leukemia, in the assay with M14 melanoma and in the assay on MOLT-4 leukemia was more than 100 µM each time. The TGI in the assay on OVCAR-4 ovarian, in the assay with RXF 393 renal, with SF-295 CNS and with SK-MEL-2 melanoma was more than 100 µM each time.
Consider `N#Cc1ccccc1C#C/C=C\C#Cc1ccccc1N`, for which the GI50 in the assay with A549 NSCLC is 6.95 µM; in the assay with BT-549 breast, 8.39 µM; in the assay on HCC-2998 colon it was 0.808 µM; in the assay on HL-60(TB) leukemia it was 4.22 µM; in the assay with M14 melanoma, 0.243 µM; in the assay on MOLT-4 leukemia it was 3.68 µM. Also, the GI50 was 16.1 µM in the assay on OVCAR-4 ovarian, 7 µM in the assay with RXF 393 renal, 1.28 µM in the assay with SF-295 CNS and 1.17 µM with SK-MEL-2 melanoma. Further, the TGI with A549 NSCLC was more than 100 µM; with BT-549 breast, more than 28.2 µM; in the assay on HCC-2998 colon, 4.11 µM; in the assay on HL-60(TB) leukemia, more than 100 µM; with M14 melanoma, 11.3 µM; in the assay with MOLT-4 leukemia, more than 100 µM. The TGI in the assay with OVCAR-4 ovarian was more than 100 µM; in the assay with RXF 393 renal it was more than 23.7 µM; in the assay on SF-295 CNS, 5.01 µM; with SK-MEL-2 melanoma, 8.2 µM.
For the molecule `O=C(/C=C1\N=C(c2ccccc2)N(c2nc3c(Cl)cc(Cl)cc3s2)C1=O)/C=C/c1ccccc1`, the TGI with A549 NSCLC, in the assay on BT-549 breast, with HCC-2998 colon, in the assay with HL-60(TB) leukemia, in the assay on M14 melanoma and with MOLT-4 leukemia was more than 100 µM each time. The TGI in the assay on OVCAR-4 ovarian, in the assay with RXF 393 renal, with SF-295 CNS and in the assay on SK-MEL-2 melanoma was more than 100 µM each time.
With `CC1(C(=O)O)C[C@](C)(C(=O)OCc2ccccc2)C[C@](C)(C(=O)OCc2ccccc2)C1` (stereo not given in full), the TGI is more than 100 µM in the assay with A549 NSCLC; 65.6 µM in the assay with BT-549 breast; 79.8 µM in the assay on HCC-2998 colon; 53.9 µM in the assay with HL-60(TB) leukemia; more than 100 µM in the assay on M14 melanoma; 67.6 µM in the assay on MOLT-4 leukemia. The TGI is more than 100 µM in the assay with OVCAR-4 ovarian, 56.4 µM in the assay on RXF 393 renal, 61.9 µM with SF-295 CNS and 39.3 µM with SK-MEL-2 melanoma.
